Experimental findings from patent US20250255893A1, “ISOPROPYL-D-GLUCOPYRANOSIDE DERIVATIVE, AND PREPARATION METHOD THEREFOR AND USE THEREOF” (NATIONAL TSING HUA UNIVERSITY, priority 2021, published 2025) are described below.

Experiment [1] concerns hippocampal neurons. The experiment is described as follows: In vitro hippocampal neuron repair (scratch injury, gap closure rate). The class given is cell-based, rat. The following applies: 72 hours. On the procedure: (§1) The experimental procedure is depicted in FIG. 2. Removed the brain of E18 rat embryos and dissected into cortex and hippocampus. Subsequently, the cortex and hippocampus were separated into cortical neurons and hippocampal neurons, respectively. Then, seeded hippocampal neurons on 48-well plates. The first day that neurons are cultured in vitro is defined as day in vitro 0 (DIV0). On DIV2, Cytosine beta-D-arabinoside (AraC) was added to neurons to inhibit the proliferation of glial cells. On DIV8, neurons were injured using pipette tips (p10 tips) and 9.674 nM to 967.4 μM Ampelopsisionoside was added. 0.1% DMSO served as the solvent control group, and the results in the figures were standardized against the 0.1% DMSO group. After 72 hours, immunostaining was performed. TUJ1 antibody was used to label neuronal cells to observe the regrowth of neurites. Images were taken using Observer Z1 microscope.
(§2) As depicted in FIG. 3, the degree of neuronal axon regeneration was quantified using the gap closure rate. White dashed lines indicate the borders of injury gap, the central black area represents the region scratched by the tip of a pipette tips. The newly regenerated neurites grow from the white dashed lines toward the center of the gap. To quantify the results, we measured the lengths of gap (Lg) and distance between regenerated neurites (Ln) every 50 m. After unbiasedly drawing ten lines of equal distance, the average distance between neurites is taken: Length of gap between regenerated neurons (Ln). Gap closure rate is calculated using the formula: (Lg−Ln)/Lg. Scale bar=100 m. Images were taken using Observer Z1 microscope.
Removed the brain of E18 rat embryos and dissected into cortex and hippocampus. Subsequently, the cortex and hippocampus were separated into cortical neurons and hippocampal neurons, respectively. Then, seeded hippocampal neurons on 48-well plates. The first day that neurons are cultured in vitro is defined as day in vitro 0 (DIV0). On DIV2, Cytosine beta-D-arabinoside (AraC) was added to neurons to inhibit the proliferation of glial cells. […]

For experiment [2], the system named is cortical neurons. The experiment is described as follows: In vitro cortical neuron repair (scratch injury, gap closure rate). The class given is cell-based, rat. To be noted: 72 hours.
Text: as §2
as §1, with “Removed” for “The experimental procedure is depicted in FIG. 2. Removed”, “seeded cortical” for “seeded hippocampal”, “to 96.74” for “to 967.4”, “neurites. Scale bar=100 m.” for “neurites.”
Removed the brain of E18 rat embryos and dissected into cortex and hippocampus. Subsequently, the cortex and hippocampus were separated into cortical neurons and hippocampal neurons, respectively. Then, seeded cortical neurons on 48-well plates. The first day that neurons are cultured in vitro is defined as day in vitro 0 (DIV0). On DIV2, Cytosine beta-D-arabinoside (AraC) was added to neurons to inhibit the proliferation of glial cells. […]

For experiment [3], the system named is injured brain sections. The experiment is described as follows: Ex vivo 3D brain slice culture, neurite outgrowth after scalpel injury. The class given is cell-based. The following applies: 350 μm rat embryo brain sections, added every day, 96 hours, vs ddH2O. On the procedure: The experimental procedure is depicted in FIG. 10. Took out the brain of rat embryos and embedded in low-melting agarose. The brains were sectioned using Leica microtome VT100. The tissue sections were collected with 350 μm thick and injured using a scalpel. ddH2O or Ampelopsisionside was added to injured brain sections every day. After 96 hours, immunostaining was performed. TUJ1 antibody was used to label neuron cells. GFAP antibody was used to label glial cells. DAPI was used to label nucleus. Scale bar=100 m. Images were taken using Zeiss LSM800 confocal microscope.
The experimental procedure is depicted in FIG. 10. Took out the brain of rat embryos and embedded in low-melting agarose. The brains were sectioned using Leica microtome VT100. The tissue sections were collected with 350 μm thick and injured using a scalpel. ddH2O or Byzantionoside B was added to injured brain sections every day. After 96 hours, immunostaining was performed. TUJ1 antibody was used to label neuron cells. GFAP antibody was used to label glial cells. DAPI was used to label nucleus. Scale bar=100 m. Images were taken using Zeiss LSM800 confocal microscope.
The experimental procedure is depicted in FIG. 10. Took out the brain of rat embryos and embedded in low-melting agarose. The brains were sectioned using Leica microtome VT100. The tissue sections were collected with 350 μm thick and injured using a scalpel. ddH2O or Roseoside was added to injured brain sections every day. After 96 hours, immunostaining was performed. TUJ1 antibody was used to label neuron cells. GFAP antibody was used to label glial cells. DAPI was used to label nucleus. Scale bar=100 μm. Images were taken using Zeiss LSM800 confocal microscope.

Experiment [4] deals with retinal explants. The experiment is described as follows: Ex vivo retinal explant neuronal repair. The class given is cell-based, C57BL/6 mice. The following applies: five days, vs ddH2O. Here is the method:
Retinal explants were obtained from C57BL/6 mice at postnatal day 8. Following the sacrifice of mice, the eyes were enucleated, and the eyeballs were dissected using forceps and microscissors to separate the retina and remove the vitreous. Subsequently, the dissected retinas were quartered and trimmed along the edges of the tissue using microscissors. Each quarter was cultured on an 18 mm round coverslip and placed in a 12-well plate inside a CO2 incubator at 35° C. for five days. The culture medium was replaced daily with fresh medium containing either 13.5 µM or 135 µM Byzantionoside B. On the fifth day of culture, the retinal tissues were fixed with a mixture of 0.1% glutaraldehyde solution and 4% paraformaldehyde at room temperature for one hour. Immunostaining was performed using primary antibodies against the axonal marker beta-III-tubulin (TUJ1) and DAPI to label neurons and cell nuclei, respectively. Images were acquired using a super-resolution upright confocal microscope (LSM-800, Carl Zeiss). […] The ratio of neuronal fiber area to tissue boundary perimeter was then calculated to determine the unit perimeter neuronal fiber length.
Retinal explants were obtained from C57BL/6 mice at postnatal day 8. […] The ratio of neuronal fiber area to tissue boundary perimeter was then calculated to determine the unit perimeter neuronal fiber length.

The structures appear in SMILES notation.

On to `C[C@H](/C=C/[C@@]1(O)[C@H](C)CC(=O)CC1(C)C)O[C@@H]1O[C@H](CO)[C@@H](O)[C@H](O)[C@H]1O` [Ampelopsisionoside], for which, in experiment [1] (9.674 nM to 967.4 μM, vs 0.1% DMSO), the “neurite regrowth after injury (gap closure rate)” value (from here on “neurite regrowth after injury”) is listed as “promotes neurite regrowth after injury”. In addition, in experiment [2] (9.674 nM to 96.74 μM, vs 0.1% DMSO), the “dendritic outgrowth (gap closure rate)” value is “effectively promotes dendritic outgrowth”. Further, in experiment [3], the “neurite outgrowth from injury site” value was “promotes neurite outgrowth”.

Consider `CC1=CC(=O)CC(C)(C)[C@H]1CC[C@@H](C)O[C@@H]1O[C@H](CO)[C@@H](O)[C@H](O)[C@H]1O` [Byzantionoside B], for which, in experiment [1] (0.13 M to 1342 μM, vs ddH2O), the “neurite regrowth after injury” value is listed as “promotes neurite regrowth after injury”. In addition, in experiment [4] (13.5 M or […]), the “recovery of injured retinal neurons (unit perimeter neuronal fiber length)” value is “significant recovery of injured retinal neurons”. The “neurite outgrowth (gap closure rate)” value in experiment [2] (1.34 M to 26.84 M, vs ddH2O) is “effectively promotes neurite outgrowth”. For the same compound, the “neurite outgrowth from injury site” value in experiment [3] is given as “promotes neurite outgrowth”.

As for `CC1=CC(=O)CC(C)(C)[C@@]1(O)/C=C/[C@@H](C)O[C@@H]1O[C@H](CO)[C@@H](O)[C@H](O)[C@H]1O` [Roseoside], in experiment [1] (0.013 M to 1294 μM, vs ddH2O), the “neurite regrowth after injury” value was “promotes neurite regrowth after injury”. Moreover, the “recovery of injured retinal neurons (unit perimeter neuronal fiber length)” value in experiment [4] (13 μM or 130 μM) is reported as “significant recovery of injured retinal neurons”. Besides, in experiment [2] (1.29 M to 25.88 M, vs ddH2O), the “dendritic outgrowth (gap closure rate)” value is on record as “effectively promotes dendritic outgrowth”. For the same compound, the “neurite outgrowth from injury site” value in experiment [3] was “promotes neurite outgrowth”.
